Experimental data published in patent US12527779B2, “Prostaglandin E2 (PGE2) EP4 receptor antagonists” (Domain Therapeutics, priority 2019, dated 2026).

target: T1, human EP4 (hEP4) receptor (Homo sapiens, UniProt P35408); assay: In vitro human EP4 functional antagonist activity using BRET biosensors (cAMP EPAC biosensor, TCS2510 stimulation); format: cell-based; details: antagonist activity vs EC60 TCS2510, hEP4 in HEK-293 T cells
T1 construct: expressed in transfected cells; host or cells: HEK-293 T cells, transient co-transfection with polyethylenimine
T1 sequence (P35408 whole entry): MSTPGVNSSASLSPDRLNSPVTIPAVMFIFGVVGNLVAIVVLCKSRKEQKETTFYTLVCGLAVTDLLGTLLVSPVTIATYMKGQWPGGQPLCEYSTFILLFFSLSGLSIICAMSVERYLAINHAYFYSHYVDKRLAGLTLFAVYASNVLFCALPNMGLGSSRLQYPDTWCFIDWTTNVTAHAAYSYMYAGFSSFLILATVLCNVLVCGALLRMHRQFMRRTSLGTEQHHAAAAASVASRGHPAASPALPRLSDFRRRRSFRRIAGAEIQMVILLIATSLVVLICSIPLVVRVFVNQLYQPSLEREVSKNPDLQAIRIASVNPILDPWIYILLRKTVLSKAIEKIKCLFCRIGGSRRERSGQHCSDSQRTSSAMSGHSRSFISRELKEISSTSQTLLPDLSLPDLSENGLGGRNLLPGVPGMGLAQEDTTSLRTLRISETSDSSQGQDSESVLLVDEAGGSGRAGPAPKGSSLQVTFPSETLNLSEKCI
Method in brief: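 HEK-293T cells transiently co-transfected with hEP4 and EPAC cAMP BRET biosensor (luciferase/GFP), assayed 48 h later in HEPES-buffered saline after 1 h at 22 °C. After 5 min with compound, cells stimulated with EC60 TCS2510 and BRET read for 10 min; IC50 from 10-point, 4.5-log variable-slope fits, duplicate, two experiments.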

IC50 [µM] | SMILES
< 0.1 | C[C@H](NC(=O)C1(c2cccc(OCC3CCCCCC3)c2)CCOCC1)c1ccc(C(=O)O)cc1 [Example 103, 4-[(1S)-1-[[4-[3-(Cycloheptylmethoxy)phenyl]tetrahydropyran-4-carbonyl]amino]ethyl]benzoic acid]
< 1 | CC(C)CCOc1cccc(C2(C(=O)N[C@@H](C)c3ccc(C(=O)O)cc3)CCOCC2)c1 [Example 104, 4-[(1S)-1-[[4-(3-Isopentyloxyphenyl)tetrahydropyran-4-carbonyl]amino]ethyl]benzoic acid]
< 1 | C[C@H](NC(=O)C1(c2cccc(OCCC3CCCCC3)c2)CCOCC1)c1ccc(C(=O)O)cc1 [Example 105, 4-[(1S)-1-[[4-[3-(2-Cyclohexylethoxy)phenyl]tetrahydropyran-4-carbonyl]amino]ethyl]benzoic acid]
< 0.1 | C[C@H](NC(=O)C1(c2ccc(OCC3CCCCC3)cc2)CCCC1)c1ccc(C(=O)O)cc1 [Example 108, 4-[(1S)-1-[[1-[4-(Cyclohexylmethoxy)phenyl]cyclopentanecarbonyl]amino]ethyl]benzoic acid]
< 0.1 | C[C@H](NC(=O)C1(c2ccc(OCc3ccccc3)cc2)CCCC1)c1ccc(C(=O)O)cc1 [Example 109, 4-[(1S)-1-[[1-(4-Benzyloxyphenyl)cyclopentanecarbonyl]amino]ethyl]benzoic acid]
< 0.1 | C[C@H](NC(=O)C1(c2ccc(OCCC3CCCCC3)cc2)CCCC1)c1ccc(C(=O)O)cc1 [Example 110, 4-[(1S)-1-[[1-[4-(2-Cyclohexylethoxy)phenyl]cyclopentanecarbonyl]amino]ethyl]benzoic acid]
< 0.1 | C[C@H](NC(=O)C1(c2cccc(OCC3CCCCC3)c2)CCCC1)c1ccc(C(=O)O)cc1 [Example 112, 4-[(1S)-1-[[1-[3-(Cyclohexylmethoxy)phenyl]cyclopentanecarbonyl]amino]ethyl]benzoic acid]
< 0.1 | C[C@H](NC(=O)C1(c2cccc(OCc3ccccc3)c2)CCCC1)c1ccc(C(=O)O)cc1 [Example 113, 4-[(1S)-1-[[1-(3-Benzyloxyphenyl)cyclopentanecarbonyl]amino]ethyl]benzoic acid]
< 1 | C[C@H](NC(=O)C1(c2cccc(OCC3CCCCC3)n2)CCOCC1)c1ccc(C(=O)O)cc1 [Example 115, 4-[(1S)-1-[[4-[6-(Cyclohexylmethoxy)-2-pyridyl]tetrahydropyran-4-carbonyl]amino]ethyl]benzoic acid]
< 1 | C[C@H](NC(=O)C1(c2ccnc(OCC3CCCCC3)c2)CCOCC1)c1ccc(C(=O)O)cc1 [Example 116, 4-[(1S)-1-[[4-[2-(Cyclohexylmethoxy)-4-pyridyl]tetrahydropyran-4-carbonyl]amino]ethyl]benzoic acid]
< 1 | C[C@H](NC(=O)C1(c2cc(OCC3CCCCC3)ccn2)CCOCC1)c1ccc(C(=O)O)cc1 [Example 117, 4-[(1S)-1-[[4-[4-(Cyclohexylmethoxy)-2-pyridyl]tetrahydropyran-4-carbonyl]amino]ethyl]benzoic acid]
< 1 | C[C@H](NC(=O)C1(c2ccc(OCC3CCCCC3)cn2)CCOCC1)c1ccc(C(=O)O)cc1 [Example 119, 4-[(1S)-1-[[4-[5-(Cyclohexylmethoxy)-2-pyridyl]tetrahydropyran-4-carbonyl]amino]ethyl]benzoic acid]
< 1 | C[C@H](NC(=O)C1(c2ccc(OCCC3CCCCC3)cn2)CCOCC1)c1ccc(C(=O)O)cc1 [Example 120, 4-[(1S)-1-[[4-[5-(2-Cyclohexylethoxy)-2-pyridyl]tetrahydropyran-4-carbonyl]amino]ethyl]benzoic acid]
< 1 | C[C@H](NC(=O)C1(c2ccc(OCC3CCCCC3)nc2)CCOCC1)c1ccc(C(=O)O)cc1 [Example 121, 4-[(1S)-1-[[4-[6-(Cyclohexylmethoxy)-3-pyridyl]tetrahydropyran-4-carbonyl]amino]ethyl]benzoic acid]
